Test results from US7141560B2, “Alanine 2,6-dialkoxyphenyl ester derivatives as hypnotics” (Akzo Nobel N.V., priority 2001, dated 2006).

tested on: mice; experiment: Hypnotic activity: loss of righting reflex after intravenous injection in mice; type: in vivo; conditions: Mus musculus, intravenous injection over 10 seconds, dose causing loss of righting reflex for minimum 30 seconds in 50% of treated mice, read-out: HD50 (hypnotic dose50)
Description: The hypnotic potency of the alanine 2,6-dialkoxyphenyl ester derivatives of the invention was determined upon their intravenous administration in mice. The dose required to cause a loss of righting reflex for a minimum period of 30 seconds in 50% of treated mice after intravenous injection over 10 seconds was determined. This dose is termed the HD50 (hypnotic dose50) and is expressed in μmol.kg^−1. These in vivo experiments were carried out as described in detail by Anderson et al., J. Med. Chem. 1997, 40, 1668–1681.

For `COC[C@H](C(=O)Oc1c(OC)cccc1OC)N1CCCOCC1` [Example 52a, 2R-[4-(Hexahydro-1-oxazepinyl)]-3-methoxypropionic acid, 2,6-dimethoxyphenyl ester], the ED50 was 16 µmol/kg.

same assay, conditions: intravenous injection over 10 seconds, dose causing loss of righting reflex for minimum 30 seconds in 50% of treated mice

Compared with `COc1cccc(OC)c1OC(=O)C(CCSC)N1CCCC1` (centres unmarked) [Example 40b, Butanoic acid, 4-(methylthio)-2-(1-pyrrolidinyl)-, 1-(2,6-dimethoxyphenyl)ester], `COc1cccc(OC)c1OC(=O)C(CCSC)N1CCCCCC1` (centres unmarked) [Example 40c, Butanoic acid, 2-(1-hexahydroazepinyl)-4-(methylthio), 1-(2,6-dimethoxyphenyl)ester] is lower in “HD50 (hypnotic dose50)” value: 40 µmol/kg for the first, 18 µmol/kg for the second.

Compared with `COc1cccc(OC)c1OC(=O)C(CCSC)N1CCCCCCC1` (centres unmarked) [Example 40d, Butanoic acid, 2-(1-hexahydroazocinyl)-4-(methylthio), 1-(2,6-dimethoxyphenyl)ester], `COC(=O)CCC(C(=O)Oc1c(OC)cccc1OC)N1CCCCCC1.Cl` (centres unmarked) [Example 47b, Pentanedioic acid, 2-(1-hexahydroazepinyl)-, 1-(2,6-dimethoxyphenyl)ester, 5-methyl ester hydrochloride (1:1) salt] is higher in “HD50 (hypnotic dose50)” value: 35 µmol/kg for the first, 36 µmol/kg for the second.

First: COc1cc(C)cc(OC)c1OC(=O)C(CCS(C)(=O)=O)N1CC=CCC1 (centres unmarked) [Example 43, Butanoic acid, 4-(methylsulphonyl)-2-(1-[1,2,3,6-tetrahydropyridinyl])-, 1-(2,6-dimethoxy-4-methylphenyl)ester]
Second: COC(=O)CCC(C(=O)Oc1c(OC)cc(C)cc1OC)N1CCCC1.Cl (centres unmarked) [Example 49a, Pentanedioic acid, 2-(1-pyrrolidinyl)-, 1-(2,6-dimethoxy4-methylphenyl)-ester, 5-methyl ester hydrochloride (1:1) salt]
The “HD50 (hypnotic dose50)” value of the first is lower: 39 µmol/kg for the first, 50 µmol/kg for the second.

First: COC(=O)CCC(C(=O)Oc1c(OC)cccc1OC)N1CCCCC1.Cl (centres unmarked) [Example 47a, Pentanedioic acid, 2-(1-piperidinyl)-, 1-(2,6-dimethoxyphenyl)ester, 5-methyl ester hydrochloride (1:1) salt]
Second: COC(=O)CCC(C(=O)Oc1c(OC)cccc1OC)N1CCSCC1.Cl (centres unmarked) [Example 47c, Pentanedioic acid, 2-(N-thiomorpholinyl)-, 1-(2,6-dimethoxyphenyl)ester, 5-methyl ester hydrochloride (1:1) salt]
The “HD50 (hypnotic dose50)” value of the first is higher: 50 µmol/kg for the first, 44 µmol/kg for the second.

First: COCCN(CCOC)C(CCC(=O)OC)C(=O)Oc1c(OC)cccc1OC.Cl (centres unmarked) [Example 48, Pentanedioic acid, 2-[bis-(2-methoxyethyl)amino]-, 1-(2,6-dimethoxyphenyl)ester, 5-methyl ester hydrochloride (1:1) salt]
Second: CCOCCN(CCOCC)C(CCC(=O)OC)C(=O)Oc1c(OC)cc(C)cc1OC.Cl (centres unmarked) [Example 50]
The “HD50 (hypnotic dose50)” value of the first is lower: 37 µmol/kg for the first, 40 µmol/kg for the second.

First: COC(=O)CCC(C(=O)Oc1c(OC)cc(C)cc1OC)N1CCCCC1.Cl (centres unmarked) [Example 49b, Pentanedioic acid, 2-(1-piperidinyl)-, 1-(2,6-dimethoxy-4-methylphenyl)ester, 5-methyl ester hydrochloride (1:1) salt]
Second: COCCC(C(=O)Oc1c(OC)cccc1OC)N1CCCOCC1 (centres unmarked) [Example 51a, (ξ)-2-[4-(Hexahydro-1-oxazepinyl)]-4-methoxybutyric acid,2,6-dimethoxyphenyl ester]
The “HD50 (hypnotic dose50)” value of the first is higher: 47 µmol/kg for the first, 15 µmol/kg for the second.

Going from `COCCC(C(=O)Oc1c(OC)cccc1OC)N1CCCOCC1` (centres unmarked) [Example 51b, (ξ)-2-[4-(Hexahydro-1-oxazepinyl)]-4-methoxybutyric acid,2,6-dimethoxyphenyl ester] to `COC[C@@H](C(=O)Oc1c(OC)cccc1OC)N1CCCOCC1` [Example 52b, 2S-[4-(Hexahyro-1-oxazepinyl)]-3-methoxypropionic acid ,2,6-dimethoxyphenyl ester], the “HD50 (hypnotic dose50)” value rises from 30 µmol/kg to 40 µmol/kg.

`COCCN(CCOC)C(COC)C(=O)Oc1c(OC)cc(C)cc1OC` (centres unmarked) [Example 51c, (ξ)-2-[N-Bis(2-methoxyethyl)amino]-3-methoxypropionic acid, 2,6-dimethoxy-4-methylphenyl ester] was tested, and the “HD50 (hypnotic dose50)” value was 24 µmol/kg.
For `COCCN(CCOC)C(COC)C(=O)Oc1c(OC)cc(C)cc1OC` (centres unmarked) [Example 51d, (ξ)-2-[N-Bis(2-methoxyethyl)amino]-3-methoxypropionic acid, 2,6-dimethoxy-4-methylphenyl ester], the “HD50 (hypnotic dose50)” value was 36 µmol/kg.
